Results: publication PMC7011792 (Journal of Enzyme Inhibition and Medicinal Chemistry, 2017)
Like-named read-outs stand apart in the source and are kept apart here.

Columns and labels:
Aβ1–42 = molecular target: T1, Aβ1–42 (Homo sapiens, UniProt P05067); assay: Inhibition of self-induced Aβ1–42 aggregation (Thioflavin T assay); assay type: biochemical; conditions: compound 25 μM, 24 h, read-out: Inhibitory rate on self-induced Aβ1-42 aggregation
T1 construct: aliquots of 2.0 µL of Aβ1–42 (AS-64129–05 Anaspec Inc.); purchased Anaspec Inc. AS-64129–05
T1 sequence (P05067 672-713): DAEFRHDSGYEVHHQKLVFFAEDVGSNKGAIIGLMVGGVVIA
Experimental: Inhibitory effects of the compounds on self-induced Aβ1–42 aggregation were evaluated using a Thioflavin T (ThT)-(T3516, Sigma-Aldrich, St. Louis, MO) binding assay according to the previously reported method. […] The Aβ1–42 and the test sample solutions were incubated for 24 h at the room temperature.
The inhibitory rate of Aβ1–42 self-induced aggregation was calculated according to the following equation: (1-IFi/IFc) × 100%. IFi and IFc were the fluorescence intensities in the presence and absence of inhibitors, respectively, after subtracting the background fluorescence of the 5 mM Thioflavin T solution. Each measurement was repeated in triplicate. The inhibitory rate of the test compound was shown in mean ± SD.

[1] = molecular target: T2, AChE (EC 3.1.1.7) from electric eel (Electrophorus electricus, UniProt O42275); assay: biochemical
T2 construct: purchased Sigma-Aldrich C3389
T2 sequence (O42275 24-633): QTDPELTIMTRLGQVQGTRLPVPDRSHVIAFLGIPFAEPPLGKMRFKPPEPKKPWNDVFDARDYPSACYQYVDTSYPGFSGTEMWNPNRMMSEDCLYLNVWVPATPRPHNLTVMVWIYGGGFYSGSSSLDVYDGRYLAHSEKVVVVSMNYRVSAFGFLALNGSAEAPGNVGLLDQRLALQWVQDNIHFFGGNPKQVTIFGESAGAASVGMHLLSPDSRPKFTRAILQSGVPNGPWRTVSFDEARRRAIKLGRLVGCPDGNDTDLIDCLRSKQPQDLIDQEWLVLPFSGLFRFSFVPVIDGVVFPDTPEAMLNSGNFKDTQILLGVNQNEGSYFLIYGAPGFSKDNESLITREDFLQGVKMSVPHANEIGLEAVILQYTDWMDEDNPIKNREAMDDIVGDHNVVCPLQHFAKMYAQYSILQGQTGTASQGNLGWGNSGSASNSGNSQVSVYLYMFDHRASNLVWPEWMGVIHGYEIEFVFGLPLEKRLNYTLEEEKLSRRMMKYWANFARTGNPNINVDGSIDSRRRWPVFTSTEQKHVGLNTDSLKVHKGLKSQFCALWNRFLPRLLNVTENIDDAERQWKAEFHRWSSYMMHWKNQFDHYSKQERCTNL
Experimental: (§1) AChE (EC 3.1.1.7, Type VI-S, from electric eel, C3389; from human, C1682) and BuChE (EC 3.1.1.8, from equine serum, C0663; from human, B4186), 5,5'-dithiobis (2-nitrobenzoic acid) (DTNB, D218200), acetylthiocholine iodide (ATC, A5751), and butyrylthiocholine iodide (BTC, B3253) were obtained from Sigma-Aldrich (St. Louis, MO).
The inhibitory effects of the synthesised compounds in this paper were evaluated according to our previously reported method. […] ATC/BTC iodide solution (0.075 M) was prepared in deionised water. […] The assay buffer was prepared as follows: potassium dihydrogen phosphate (1.36 g, 10 mmol) was dissolved in 100 ml of water. The pH of the solution was then adjusted to 8.0 ± 0.1 with KOH. Stock solutions of the test samples were dissolved in ethanol to give a final concentration of 10^−4 M when diluted to the final volume of 3.32 ml. For each compound, a dilution series of at least five different concentrations (normally 10^−5–10^−9 M) were prepared.
For measurement, a cuvette containing 3.0 ml of phosphate buffer, 100 µL of AChE or BuChE, 100 µL of DTNB, and 100 µL of the test compound solution were added in sequence. The reaction was initiated after adding 20 µL of ATC or BTC, and the solution was mixed immediately. […] For the reference value, 100 µL of water replaced the test compound solution. For the blank control, additionally 100 µL of water replaced the enzyme solution. The measurement for each concentration was assayed in triplicate. GraphPad Prism 5 was used for data processing. The inhibition curve was fitted by plotting percentage enzyme activity (100% for the reference) versus logarithm of test compound concentration. The IC50 values were calculated according to the curve, and the data were shown in mean ± SEM.
The inhibitory effects on ChEs of all the target compounds were determined according to Ellman’s method. AChE from electrophorus electricus (eeAChE) and BuChE from equine serum (eqBuChE) were used in the assays.

ICR mice [2] = assay: Morris water maze test, scopolamine-induced cognitive impairment
ICR mice [3] = tested on: ICR mice
Experimental: The activity of AST and ALT, two indicators of liver damage, was determined using corresponding assay kit (EF551 and EF550 for ALT, EH027, and EF548 for AST, Wako, Japan).
One hour after the collection of retrobulbar blood, mice were sacrificed and livers were harvested for morphological studies by using immunohistochemical method. Two 3 mm sections of each liver extending from the hilus to the margin of the left lateral lobe were isolated by Ultra-Thin Semiautomatic Microtome (Leica RM2245, Germany) and immediately placed in 10% buffered formaldehyde, fixed for two days, and embedded together in one paraffin block by using Paraffin Embedding Station (Leica EG1150H, Germany). Subsequently, 5 µm sections were prepared from these paraffin blocks. They were deparaffinated and stained with hematoxylin and eosin or by means of the periodic acid-Schiff procedure for glycogen.

[4] = molecular target: T3, BuChE (EC 3.1.1.8) from human (Homo sapiens, UniProt P06276); assay: Human BuChE inhibition, Ellman's method; assay type: biochemical; conditions: huBuChE; mean ± SEM
T3 construct: purchased Sigma-Aldrich B4186
T3 sequence (P06276 29-602): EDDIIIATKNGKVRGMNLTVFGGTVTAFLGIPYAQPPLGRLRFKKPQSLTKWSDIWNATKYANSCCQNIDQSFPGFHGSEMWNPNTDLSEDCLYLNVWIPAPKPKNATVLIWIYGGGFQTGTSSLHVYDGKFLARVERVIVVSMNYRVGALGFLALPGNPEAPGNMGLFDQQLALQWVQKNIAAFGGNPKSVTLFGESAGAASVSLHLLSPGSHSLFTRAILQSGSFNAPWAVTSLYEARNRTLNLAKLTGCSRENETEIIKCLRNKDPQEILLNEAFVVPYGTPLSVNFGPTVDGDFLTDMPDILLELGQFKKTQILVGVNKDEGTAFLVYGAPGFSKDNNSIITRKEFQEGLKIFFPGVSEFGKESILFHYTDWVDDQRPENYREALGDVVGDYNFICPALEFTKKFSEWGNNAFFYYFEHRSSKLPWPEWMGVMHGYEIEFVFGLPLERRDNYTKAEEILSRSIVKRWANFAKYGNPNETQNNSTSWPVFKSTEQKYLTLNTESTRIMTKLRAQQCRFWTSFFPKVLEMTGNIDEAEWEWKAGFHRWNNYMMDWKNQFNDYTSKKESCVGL
Experimental: as §1
The inhibitory effects of the synthesised compounds in this paper were evaluated according to our previously reported method. Briefly, AChE/BuChE stock solution was diluted to give 2.5 units/mL (for eeAChE, eqBuChE, and huAChE) or 0.5 units/mL for huBuChE. ATC/BTC iodide solution (0.075 M) was prepared in deionised water. DTNB solution (0.01 M) was prepared using water containing 0.15% (w/v) sodium bicarbonate. The assay buffer was prepared as follows: potassium dihydrogen phosphate (1.36 g, 10 mmol) was dissolved in 100 ml of water. The pH of the solution was then adjusted to 8.0 ± 0.1 with KOH. Stock solutions of the test samples were dissolved in ethanol to give a final concentration of 10^−4 M when diluted to the final volume of 3.32 ml. For each compound, a dilution series of at least five different concentrations (normally 10^−5–10^−9 M) were prepared.
For measurement, a cuvette containing 3.0 ml of phosphate buffer, 100 µL of AChE or BuChE, 100 µL of DTNB, and 100 µL of the test compound solution were added in sequence. The reaction was initiated after adding 20 µL of ATC or BTC, and the solution was mixed immediately. Two minutes (eeAChE and eqBuChE) or 15 min (huAChE and huBuChE) after ATC or BTC addition, the absorption was measured at 25 °C (eeAChE and eqBuChE) or 37 °C (huAChE and huBuChE) at 412 nm, using a Shimadzu 160 spectrophotometer. For the reference value, 100 µL of water replaced the test compound solution. For the blank control, additionally 100 µL of water replaced the enzyme solution. The measurement for each concentration was assayed in triplicate. GraphPad Prism 5 was used for data processing. […] The IC50 values were calculated according to the curve, and the data were shown in mean ± SEM.

[5] = 22 h after ig administration, 151.5 µmol/kg, mice serum, n = 6
[6] = 36 h after ig administration, 151.5 µmol/kg, mice serum, n = 6

## O=C(/C=C/c1ccc([N+](=O)[O-])cc1)NCCCCCCNc1c2c(nc3ccccc13)CCCC2 [Compound 19, (E)-3-(4-nitrophenyl)-N-(6-((1,2,3,4-tetrahydroacridin-9-yl)amino)hexyl)acrylamide]
Aβ1–42
  inhibition at 25 µM: 31.8%
[1]; AChE from electric eel, mean ± SEM of three experiments
  IC50: 2.7 ± 0.4 nM
[1]; eqBuChE IC50 / eeAChE IC50
  Selectivity index (SI) = BuChE IC50/AChE IC50: 2.4
ICR mice [2]; learning and training, Day 5, oral, plus scopolamine, ICR mice
  Latency to target (second), Day 5: 54.1 ± 8.9 s
ICR mice [2]; learning and training, Day 6, oral, plus scopolamine, ICR mice
  Latency to target (second), Day 6: 36.5 ± 4.2 s
ICR mice [2]; learning and training, Day 7, oral, plus scopolamine, ICR mice
  Latency to target (second), Day 7: 36.6 ± 4.3 s
ICR mice [2]; learning and training, Day 8, oral, plus scopolamine, ICR mice
  Latency to target (second), Day 8: 35.2 ± 4.7 s
ICR mice [2]; learning and training, Day 9, oral, plus scopolamine, ICR mice
  Latency to target (second), Day 9: 26.1 ± 1.4 s
ICR mice [2]; probe trial, oral administration plus scopolamine (1 mg/kg ip), ICR mice, mean ± SEM, n = 6
  Latency to Target: 25.0 ± 1.5 s
ICR mice [2]; scopolamine-impaired ICR mice, compared to tacrine group
  trajectory in the Morris water maze test: much shortened distances as compared to tacrine group
ICR mice [3]; 8 h after ig administration, 151.5 µmol/kg, mice serum, n = 6
  AST (U/L): 119.6 ± 10.8 U/L
ICR mice [3]; [5]
  ALT (U/L): 44.4 ± 3.9 U/L
  AST (U/L): 130.6 ± 8.2 U/L
ICR mice [3]; [6]
  ALT (U/L): 40.2 ± 2.5 U/L
  AST (U/L): 133.9 ± 13.5 U/L
ICR mice [3]; mouse, in vivo
  ALT (U/L): 36.0 ± 2.9 U/L
  morphologic changes in liver: did not cause remarkable morphologic changes in liver
[4]
  IC50: 6.3 nM
